Columns and labels:
[1] = tested on: calf pulmonary artery ECs (CPAECs); experiment: endothelial cell proliferation in the absence of fibrin; assay type: cell-based; conditions: SNAP 0.1 and 0.4 mmol/L, L-NAME, L-NMMA 1 mmol/L
Description: (§1) Angiogenesis is a complex process that involves the activation of quiescent endothelial cells (ECs) to a proliferative and migratory phenotype and, subsequently, their redifferentiation to form vascular tubes. We hypothesized that NO contributes to angiogenesis by terminating the proliferative action of angiogenic growth factors and initiating a genetic program of EC differentiation. Human umbilical vein ECs (HUVECs) and calf pulmonary artery ECs (CPAECs) were grown directly on plastic dishes or on three-dimensional fibrin matrices. […] The addition of basic fibroblast growth factor (bFGF, […]) increased the expression of endothelial NO synthase mRNA and the production of NO in both cell types when cultured on three-dimensional fibrin gels and produced profound morphological changes characterized by the appearance of extensive capillary-like vascular structures and the loss of EC monolayers. These changes were quantified by measuring total tube length per low-power field (X 100), and a differentiation index was derived using the ratio of tube length over area covered by residual EC monolayer. In the absence of additional angiogenic factors, the differentiation index was low for both HUVECs and CPAECs (control, 1.16plus or minus0.19 and 2.07plus or minus0.87, respectively).

[2] = tested on: Human umbilical vein ECs (HUVECs); experiment: as above; assay type: cell-based; conditions: SNAP 0.1 and 0.4 mmol/L
Description: as §1

[3] = tested on: Human umbilical vein ECs (HUVECs); experiment: EC differentiation on three-dimensional fibrin gels; assay type: cell-based; conditions: bFGF 30 ng/nL
Description: as §1

[4] = tested on: calf pulmonary artery ECs (CPAECs); experiment: as above; assay type: cell-based; conditions: bFGF 30 ng/nL
Description: as §1

[5] = tested on: endothelial cells (ECs); experiment: EC tube formation in response to bFGF; assay type: cell-based
Description: as §1

[6] = treatment of asthma; cited from earlier work

CNC(=N)NCCC[C@H](N)C(=O)O [L-NMMA, N(G)-monomethyl-L- arginine]
proliferation [1]: significantly increased

CC(=O)N[C@H](C(=O)O)C(C)(C)SN=O (racemic) [SNAP, S-nitroso-N-acetylpenicillamine]
proliferation [2]: dose-dependent inhibition | proliferation [1]: dose-dependent inhibition

bFGF: basic fibroblast growth factor
expression of endothelial NO synthase mRNA and production of NO [3]: increased | expression of endothelial NO synthase mRNA and production of NO [4]: increased

COC(=O)[C@@H](N)CCCNC(=N)N[N+](=O)[O-] [L-NAME, N(G)-nitro-L-arginine methyl ester]
proliferation [1]: significantly increased | EC tube formation in response to bFGF [5]: inhibited EC tube formation

Cn1c(=O)c2[nH]cnc2n(C)c1=O [theophylline]
minimum effective blood concentrations [6]: 6 to 10 µg/mL
